Read-outs that look alike come from different tables or passages of the source. Blank lines part the entries; values can stand above or below the molecule they belong to.
Key:
AKR1B15 [1] = target: T1, AKR1B15 (Homo sapiens, UniProt C9JRZ8); experiment: Inhibition screening with D,L-glyceraldehyde as substrate; format: biochemical; details: for IC50: 6 mM D,L-glyceraldehyde as substrate, 0.1% DMSO
T1 construct: made in house; host or cells: E. coli BL21(DE3), with or without chaperone plasmids pBB540/pBB542
Method: (§1) Activities were determined in 100 mM sodium phosphate, pH 7.0, at 25°C, using 0.2 mM NADPH in 0.2-cm path length cuvettes, with freshly prepared substrate solutions. One unit of activity is defined as the amount of enzyme required to transform 1 μmol of substrate per min at 25°C.
(§2) All compounds tested as inhibitors were dissolved in DMSO and assayed in a final concentration of 0.1% (v/v) DMSO using 6 mM D,L-glyceraldehyde as a substrate. Kinetic constant and IC50 (compound concentration that inhibits enzymatic activity by 50%) values were calculated by fitting the initial rates to the appropriate equation using Grafit 5.0 (Eritacus Software) and values were given as the mean ± standard error of three experiments. Standard error values were less than 20% of the mean values.

AKR1B1 [2] = target: T2, AKR1B1 (Homo sapiens, UniProt P15121); details: cited from earlier work
T2 construct: made in house

AKR1B10 [3] = target: T3, AKR1B10 (Homo sapiens, UniProt O60218); details: cited from earlier work
T3 construct: made in house

AKR1B15 [4] = target: T1, AKR1B15; experiment: Spectrophotometric activity assay (NADPH decrease at 340 nm), substrate kinetics; format: biochemical; details: for Km / k cat: substrate, spectrophotometric, 0.2 mM NADPH; for Km: 100 mM sodium phosphate pH 7.0, 25°C, <1 values only approximate; for k cat: pH 7.0, 25°C
AKR1B1 [5] = target: T2, AKR1B1; experiment: as above; format: biochemical; details: for activity class: at saturating concentration of substrate for AKR1B15
Method: as §1, §2

AKR1B10 [6] = target: T3, AKR1B10; details: substrate; cited from earlier work
AKR1B1 [7] = target: T2, AKR1B1; details: substrate, cited from earlier work; for Km: read-out: Km
AKR1B10 [8] = target: T3, AKR1B10; experiment: Spectrophotometric activity assay (NADPH decrease at 340 nm), substrate kinetics; format: biochemical; details: for activity class: at saturating concentration of substrate for AKR1B15; for Km: read-out: Km

T1 sequence (C9JRZ8 whole entry): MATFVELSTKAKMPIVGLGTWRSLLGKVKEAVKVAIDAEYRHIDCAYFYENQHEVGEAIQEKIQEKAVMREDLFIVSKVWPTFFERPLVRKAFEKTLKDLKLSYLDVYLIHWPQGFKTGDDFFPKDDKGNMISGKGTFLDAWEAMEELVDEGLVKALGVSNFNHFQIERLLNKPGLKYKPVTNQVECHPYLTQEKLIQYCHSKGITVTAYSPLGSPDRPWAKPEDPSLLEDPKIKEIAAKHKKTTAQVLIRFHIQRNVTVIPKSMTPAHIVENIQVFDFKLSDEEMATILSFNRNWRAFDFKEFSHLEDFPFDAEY
T3 sequence (O60218 whole entry): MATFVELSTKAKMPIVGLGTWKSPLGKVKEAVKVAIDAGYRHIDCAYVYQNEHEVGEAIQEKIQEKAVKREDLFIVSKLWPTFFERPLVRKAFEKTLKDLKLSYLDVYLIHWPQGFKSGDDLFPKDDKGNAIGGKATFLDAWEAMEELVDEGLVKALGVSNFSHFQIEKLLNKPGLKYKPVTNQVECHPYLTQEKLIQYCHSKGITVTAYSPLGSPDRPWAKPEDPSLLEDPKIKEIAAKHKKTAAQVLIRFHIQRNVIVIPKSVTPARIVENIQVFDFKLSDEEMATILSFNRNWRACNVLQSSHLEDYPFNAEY

IC50 (AKR1B15 [1]): > 100 µM
SMILES: CC1=C(CC(=O)O)c2cc(F)ccc2/C1=C\c1ccc([S+](C)[O-])cc1 (stereo not drawn) [Sulindac]
IC50 (AKR1B1 [2]; AKR1B1, values in Table 3): < 10 µM
IC50 (AKR1B10 [3]; AKR1B10, values in Table 3): < 10 µM

rate of reduction (AKR1B15 [4]; 200 mM glucose): 12 mU/mg
rate of reduction (AKR1B1 [5]; 200 mM glucose): 500 mU/mg
SMILES: OC[C@H]1OC(O)[C@H](O)[C@@H](O)[C@@H]1O (stereo partly drawn) [glucose]

IC50 (AKR1B15 [1]): > 100 µM
SMILES: CC1(C)CC[C@]2(C(=O)O)CC[C@]3(C)C(=CC[C@@H]4[C@@]5(C)CC[C@H](O)C(C)(C)[C@@H]5CC[C@]43C)[C@@H]2C1 [Oleanolic acid]

inhibition model (AKR1B15 [1]; data not shown): non-competitive
SMILES: CCCCCCCCCCCC(=O)N(C)CC(=O)[O-].[Na+] [Sarkosyl, sodium N-lauroylsarcosinate]

Km (AKR1B15 [4]; read-out: Km): 5 µM
k cat (AKR1B15 [4]): 0.188 s⁻¹
SMILES: CCC/C=C/C=O [trans-2-hexenal]
Km (AKR1B10 [6]): 28 µM
k cat (min^−1) (AKR1B10 [6]): 49 ^b min^−1
Km (AKR1B1 [7]): 9 µM
k cat (min^−1) (AKR1B1 [7]): 16 ^b min^−1

IC50 (AKR1B15 [1]): 0.034 ± 0.005 µM
SMILES: Oc1c(F)c(F)c(-c2c(F)c(F)c(O)c(F)c2F)c(F)c1F [JF0064, 2,2’,3,3’,5,5’,6,6’-octafluoro-4,4’-biphenyldiol]
IC50 (AKR1B1 [2]; AKR1B1, values in Table 3): < 10 µM
IC50 (AKR1B10 [3]; AKR1B10, values in Table 3): < 10 µM

The remaining lines, values behind:

SMILES: C[C@H](CCC(=O)O)[C@H]1CC[C@H]2[C@@H]3CC[C@@H]4C[C@H](O)CC[C@]4(C)[C@H]3CC[C@]12C [Lithocholic acid]
IC50 (AKR1B15 [1]): 16.3 ± 7.6 µM
IC50 (AKR1B1 [2]; AKR1B1): 7.2 µM
IC50 (AKR1B10 [3]; AKR1B10): 0.12 µM
selectivity between AKR1B10 and AKR1B1 (AKR1B10 [3]; in words): more selective against AKR1B10

SMILES: C=CC(C)=O [3-buten-2-one]
activity class (AKR1B10 [8]): LA (LA, low activity (≤ 10 mU/mg) was detected at saturating concentration of substrate for AKR1B15)
Km (AKR1B15 [4]; read-out: Km): 21.3 µM
k cat (AKR1B15 [4]): 0.137 s⁻¹
activity class (AKR1B1 [5]): LA (LA, low activity (≤ 10 mU/mg) was detected at saturating concentration of substrate for AKR1B15)

SMILES: CC(=O)C(C)=O [2,3-butanedione]
Km (AKR1B10 [6]): 540 µM
k cat (min^−1) (AKR1B10 [6]): 260 ^d min^−1
Km (AKR1B1 [7]): 110 µM
k cat (min^−1) (AKR1B1 [7]): 23 ^d min^−1
Km (AKR1B15 [4]; read-out: Km): < 1 µM
k cat (AKR1B15 [4]): 0.177 s⁻¹

SMILES: CC(/C=C1\SC(=S)N(CC(=O)O)C1=O)=C\c1ccccc1 [Epalrestat]
IC50 (AKR1B15 [1]): > 50 µM

SMILES: O=CC(O)CO (racemic) [D,L-glyceraldehyde]
Km (AKR1B10 [6]): 6000 µM
k cat (min^−1) (AKR1B10 [6]): 35 ^a min^−1
Km (AKR1B1 [7]): 50 µM
k cat (min^−1) (AKR1B1 [7]): 31 ^a min^−1
Km (AKR1B15 [4]; read-out: Km): 880 µM
k cat (AKR1B15 [4]): 0.178 s⁻¹

SMILES: CCC(=O)CC(=O)CC [3,5-heptanedione]
Km (AKR1B10 [8]; substrate, spectrophotometric): > 50000 µM
Km (AKR1B15 [4]; read-out: Km): 1300 µM
k cat (AKR1B15 [4]): 0.0883 s⁻¹

SMILES: CC(=O)CC(C)=O [2,4-pentanedione]
k cat (AKR1B10 [8]; substrate, spectrophotometric): 0.143 s⁻¹
Km (AKR1B10 [8]; substrate, spectrophotometric): 58900 µM
Km (AKR1B15 [4]; read-out: Km): 40 µM
k cat (AKR1B15 [4]): 0.0367 s⁻¹

SMILES: O=Cc1ccccc1 [benzaldehyde]
Km (AKR1B10 [6]): 9.7 µM
k cat (min^−1) (AKR1B10 [6]): 104 ^b min^−1
Km (AKR1B1 [7]): 21 µM
k cat (min^−1) (AKR1B1 [7]): 91 ^b min^−1
Km (AKR1B15 [4]): < 1 µM
k cat (AKR1B15 [4]): 0.202 s⁻¹

SMILES: CCCCCC=CC(C)=O [3-nonen-2-one]
activity class (AKR1B10 [8]): LA (LA, low activity (≤ 10 mU/mg) was detected at saturating concentration of substrate for AKR1B15)
Km (AKR1B15 [4]; read-out: Km): 1.7 µM
k cat (AKR1B15 [4]): 0.113 s⁻¹
activity class (AKR1B1 [5]): LA (LA, low activity (≤ 10 mU/mg) was detected at saturating concentration of substrate for AKR1B15)
